Source: patent publication US12495798B2, “Nicotinamide compound and herbicidal composition comprising compound” (KOREA RESEARCH INSTITUTE OF CHEMICAL TECHNOLOGY, priority 2019, dated 2025)

Experiments:
Assay type in all cases: in vivo
barnyard grass = assay: Herbicidal activity test against upland field weeds (foliar treatment test); details: 50 g ai/ha, scale 0-100; for pest or weed control at 50 g/ha: Echinochloa crus-galli
How it was run: (§1)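 Visual 0–100 control ratings relative to untreated plants, taken 14 (or 21) days after spraying foliage at 50 or 75 g a.i./ha. Spray solution: 50% acetone with 0.1% Tween-20; plants kept in greenhouse at 30±5 °C, 14 h light/10 h dark.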

quack grass = assay: as above; design: key to Foliar treatment herbicidal activity, quack grass: 0 (no control); 100 (complete control); details: 50 g ai/ha, scale 0-100
How it was run: as §1

bindweed = assay: as above; details: 50 g ai/ha, scale 0-100
How it was run: as §1

black nightshade = assay: as above; design: key to Foliar treatment herbicidal activity, black nightshade: 0 (no control); 100 (complete control); details: 50 g ai/ha, scale 0-100; for pest or weed control at 50 g/ha: Solanum nigrum
How it was run: as §1

wheat = assay: Phytotoxicity test for upland field crops (foliar treatment test); design: key: 0 (no harm); 9 (complete withered)
How it was run: (§2)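 Post-emergence spray at 19–300 g a.i./ha (acetone/Tween-20 diluent, 100 ml/m²) onto greenhouse-grown plants. Damage rated 7 and 14 (optionally 21) days later on a 0–9 scale relative to untreated plants.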

corn = assay: as above; design: key: 0 (no harm); 9 (complete withered)
How it was run: as §2

velvetleaf = assay: Herbicidal activity test against upland field weeds (foliar treatment test); details: 50 g ai/ha; for Foliar treatment herbicidal activity, velvet leaf: scale 0-100; for pest or weed control at 50 g/ha: Abutilon theophrasti, scale 0-100, read-out: Foliar treatment herbicidal activity, velvet leaf
How it was run: as §1

fall panicum = assay: as above; details: 50 g ai/ha, scale 0-100; for pest or weed control at 50 g/ha: Panicum dichotomiflorum
How it was run: as §1

sorghum = assay: as above; design: key to Foliar treatment herbicidal activity, Sorghum: 0 (no control); 100 (complete control); details: 50 g ai/ha, scale 0-100; for plant injury at 50 g/ha: Sorghum
How it was run: as §1

indian jointvetch = assay: as above; details: 50 g ai/ha, scale 0-100
How it was run: as §1

cocklebur = assay: as above; details: 50 g ai/ha, scale 0-100; for pest or weed control at 50 g/ha: Xanthium strumarium
How it was run: as §1

crabgrass = assay: as above; details: 50 g ai/ha, scale 0-100; for pest or weed control at 50 g/ha: Digitaria sanguinalis
How it was run: as §1

[1] = 50 g ai/ha, Wheat (7 days after treatment)
[2] = 50 g ai/ha, Wheat (14 days after treatment)
[3] = 100 g ai/ha, Wheat (7 days after treatment)
[4] = 100 g ai/ha, Wheat (14 days after treatment)
[5] = 50 g ai/ha, Corn (7 days after treatment)
[6] = 50 g ai/ha, Corn (14 days after treatment)
[7] = 100 g ai/ha, Corn (7 days after treatment)
[8] = 100 g ai/ha, Corn (14 days after treatment)

Structure (SMILES) | Foliar treatment herbicidal activity, barnyard grass (barnyard grass) | Foliar treatment herbicidal activity, quack grass (quack grass) | Foliar treatment herbicidal activity, Bindweed (bindweed) | Foliar treatment herbicidal activity, black nightshade (black nightshade) | Foliar treatment phytotoxicity, Wheat (wheat; [1]) | Foliar treatment phytotoxicity, Wheat (wheat; [2]) | Foliar treatment phytotoxicity, Wheat (wheat; [3]) | Foliar treatment phytotoxicity, Wheat (wheat; [4]) | Foliar treatment phytotoxicity, Corn (corn; [5]) | Foliar treatment phytotoxicity, Corn (corn; [6]) | Foliar treatment phytotoxicity, Corn (corn; [7]) | Foliar treatment phytotoxicity, Corn (corn; [8]) | Foliar treatment herbicidal activity, velvet leaf (velvetleaf) | Foliar treatment herbicidal activity, Fall panicum (fall panicum) | Foliar treatment herbicidal activity, Sorghum (sorghum) | Foliar treatment herbicidal activity, Indian jointvetch (indian jointvetch) | Foliar treatment herbicidal activity, Cocklebur (cocklebur) | Foliar treatment herbicidal activity, Crabgrass (crabgrass) | pest or weed control at 50 g/ha (barnyard grass) [%] | pest or weed control at 50 g/ha (bindweed) [%] | further results
C#CCn1nnnc1NC(=O)c1ccc(C(F)(F)F)nc1COCc1nc(C(F)(F)F)n(C)n1 [Compound No. 2-122] | 50 | 30 | 70 | 95 | 0 | 0 | 0 | 0 | 0 | 0 | 0 | 0 | 50 | 40 | 0 | 70 | 80 | 20 |  |  | 
Cn1nnnc1NC(=O)c1ccc(C(F)(F)F)nc1COCc1nc(C(F)F)n(C)n1 [Compound No. 2-123] | 95 | 40 | 80 | 98 | 0 | 0 | 0 | 0 | 3 | 2 | 4 | 4 | 70 | 95 | 70 | 70 | 90 | 95 |  |  | 
CCCn1nnnc1NC(=O)c1ccc(C(F)(F)F)nc1COCc1nc(C(F)F)n(C)n1 [Compound No. 2-124] | 90 | 20 | 70 | 95 | 0 | 1 | 1 | 1 | 2 | 1 | 3 | 2 | 60 | 90 | 40 | 60 | 80 | 95 |  |  | 
C=CCn1nnnc1NC(=O)c1ccc(C(F)(F)F)nc1COCc1nc(C(F)F)n(C)n1 [Compound No. 2-125, N-(1-allyl-1H-tetrazol-5-yl)-2-(((5-(difluoromethyl)-1-methyl-1H-1,2,4-triazol-3-yl)methoxy)methyl)-6-(trifluoromethyl)nicotinamide] |  |  |  |  | 0 | 0 | 0 | 0 | 0 | 0 | 1 | 1 |  |  |  |  |  |  | 60 | 95 | pest or weed control at 50 g/ha (quack grass): 40%; pest or weed control at 50 g/ha (black nightshade): 95%; pest or weed control at 50 g/ha (velvetleaf): 40%; pest or weed control at 50 g/ha (fall panicum): 90%; plant injury at 50 g/ha (sorghum): 30%; pest or weed control at 50 g/ha (indian jointvetch): 60%; pest or weed control at 50 g/ha (cocklebur): 80%; pest or weed control at 50 g/ha (crabgrass): 95%
Cn1nc(COCc2nc(C(F)(F)F)ccc2C(=O)Nc2nnnn2C)nc1CF [Compound No. 2-126, 2-(((5-(fluoromethyl)-1-methyl-1H-1,2,4-triazol-3-yl)methoxy)methyl)-N-(1-methyl-1H-tetrazol-5-yl)-6-(trifluoromethyl)nicotinamide] |  | 0 |  | 100 | 0 | 0 | 0 | 0 | 1 | 1 | 3 | 2 |  |  |  |  |  |  | 80 | 20 | pest or weed control at 50 g/ha (velvetleaf): 80%; pest or weed control at 50 g/ha (fall panicum): 80%; plant injury at 50 g/ha (sorghum): 60%; pest or weed control at 50 g/ha (indian jointvetch): 50%; pest or weed control at 50 g/ha (cocklebur): 90%; pest or weed control at 50 g/ha (crabgrass): 90%
C=Cc1nc(COCc2nc(C(F)(F)F)ccc2C(=O)Nc2nnnn2C)nn1C [Compound No. 2-127, N-(1-methyl-1H-tetrazol-5-yl)-2-(((1-methyl-5-vinyl-1H-1,2,4-triazol-3-yl)methoxy)methyl)-6-(trifluoromethyl)nicotinamide] |  | 0 |  |  | 0 | 0 | 0 | 0 | 0 | 0 | 0 | 0 |  |  |  |  |  |  | 60 | 50 | pest or weed control at 50 g/ha (black nightshade): 80%; pest or weed control at 50 g/ha (velvetleaf): 30%; pest or weed control at 50 g/ha (fall panicum): 40%; plant injury at 50 g/ha (sorghum): 30%; pest or weed control at 50 g/ha (indian jointvetch): 20%; pest or weed control at 50 g/ha (cocklebur): 60%; pest or weed control at 50 g/ha (crabgrass): 60%
